Strand notation (5' to 3'): a small letter for the sugar, then the base; units joined by * are phosphorothioate-linked, units joined directly phosphodiester-linked; [ ] holds rarer units or linkages, { } end groups; capitals alone tell only the bases. [ms] = mesyl phosphoramidate linkage; e = 2'-O-(2-methoxyethyl) (MOE); [5mC] = 5-methylcytosine; d = 2'-deoxy (DNA)
Columns and labels:
human APOE RNA [1] = assay: Activity in APOE C57BL/6NTac-Apoeem7250 knock-in mice, single ICV bolus, 16 weeks (Example 12); type: in vivo; conditions: single ICV bolus 300 μg, 16 weeks post treatment, normalized to mouse Ppia
Protocol: Modified oligonucleotides described above were tested in the APOE C57BL/6NTac-Apoeem7250 knock-in mouse model described above.
APOE C57BL/6NTac-Apoeem7250 knock-in mice were divided into groups of 3-4 mice each. Each mouse received a single intracerebroventricular (ICV) bolus of 300 μg of modified oligonucleotide. A group of 4 mice received a single ICV bolus with PBS as a negative control.
Sixteen weeks post treatment, mice were sacrificed and RNA was extracted from cortical brain tissue and spinal cord for quantitative real-time RT-PCR analysis of RNA expression of APOE using primer probe set RTS3073 (described herein above). APOE RNA levels were normalized to mouse Ppia. Mouse Ppia was amplified using primer probe set m_cyclo24 (described herein above). Results are presented as percent human APOE RNA relative to the amount of human APOE RNA in PBS treated animals, (% control). Each experiment is identified in separate tables below.

human APOE RNA [2] = assay: Dose-dependent inhibition of human APOE RNA in HepG2 cells, electroporation, 24 hours (Example 6); type: cell-based
Protocol: Modified oligonucleotides selected from the examples above were tested at various doses in HepG2.
HepG2 cells plated at a density of 50,000 cells per well were treated by electroporation with various concentrations of modified oligonucleotide as specified in the tables below. […] APOE RNA levels were measured using the human primer probe set RTS3073 (described herein above). APOE RNA levels were normalized to human GAPDH. Human GAPDH was amplified using human primer probe set RTS 104 (described herein above). Results are presented as percent APOE RNA, relative to the amount of APOE RNA in untreated control cells (% UTC). The half maximal inhibitory concentration (IC50) of each modified oligonucleotide was calculated in GraphPad Prism 10 (GraphPad Software, San Diego, CA) and is also presented in the tables below.

Substance | APOE RNA (% control) Cortex (human APOE RNA [1]) [% control] | APOE RNA (% control) Spinal Cord (human APOE RNA [1]) [% control] | other results
1693068: 5-10-5 MOE gapmer ACTTGGTGAATCTTTATTAA, linkages sssossszzzszsssssss (antisense eA*e[5mC]*eT*eTeG*dG*dT*dG[ms]dA[ms]dA[ms]dT*d[5mC][ms]dT*dT*dT*eA*eT*eT*eA*eA) [compound 1693068] | 86 | 72 | 
1693062: 5-10-5 MOE gapmer TTGGTGAATCTTTATTAAAC, linkages ssssozzzsssszzsssss (antisense eT*eT*eG*eG*eTdG[ms]dA[ms]dA[ms]dT*d[5mC]*dT*dT*dT[ms]dA[ms]dT*eT*eA*eA*eA*e[5mC]) [compound 1693062] | 98 | 110 | 
1693066: 5-10-5 MOE gapmer ACTTGGTGAATCTTTATTAA, linkages sssssssszzsssssooss (antisense eA*e[5mC]*eT*eT*eG*dG*dT*dG*dA[ms]dA[ms]dT*d[5mC]*dT*dT*dT*eAeTeT*eA*eA) [compound 1693066] | 88 | 73 | 
1693141: 6-10-4 MOE gapmer ACTTGGTGAATCTTTATTAA, linkages ssssooszzzssssszsss (eA*e[5mC]*eT*eT*eGeGdT*dG[ms]dA[ms]dA[ms]dT*d[5mC]*dT*dT*dT*dA[ms]eT*eT*eA*eA) [compound 1693141] | 82 | 66 | 
1693061: 5-10-5 MOE gapmer TTGGTGAATCTTTATTAAAC, linkages sssoszzzsssszzsssss (antisense eT*eT*eG*eGeT*dG[ms]dA[ms]dA[ms]dT*d[5mC]*dT*dT*dT[ms]dA[ms]dT*eT*eA*eA*eA*e[5mC]) [compound 1693061] | 91 | 99 | 
1693080: 6-10-4 MOE gapmer TTGGTGAATCTTTATTAAAC, linkages ssssoszzszssszssoss (eT*eT*eG*eG*eTeG*dA[ms]dA[ms]dT*d[5mC][ms]dT*dT*dT*dA[ms]dT*dT*eAeA*eA*e[5mC]) [compound 1693080] | 99 | 88 | 
1693055: 5-10-5 MOE gapmer TTGGTGAATCTTTATTAAAC, linkages sososzzzsssssssosss (antisense eT*eTeG*eGeT*dG[ms]dA[ms]dA[ms]dT*d[5mC]*dT*dT*dT*dA*dT*eTeA*eA*eA*e[5mC]) [compound 1693055] | 95 | 67 | 
1693106: 6-10-4 MOE gapmer CTTGGTGAATCTTTATTAAA, linkages sssssszzzssssszssss (e[5mC]*eT*eT*eG*eG*eT*dG[ms]dA[ms]dA[ms]dT*d[5mC]*dT*dT*dT*dA[ms]dT*eT*eA*eA*eA) [compound 1693106] | 78 | 71 | 
1693056: 5-10-5 MOE gapmer TTGGTGAATCTTTATTAAAC, linkages ssosszzzssssszsosss (antisense eT*eT*eGeG*eT*dG[ms]dA[ms]dA[ms]dT*d[5mC]*dT*dT*dT*dA[ms]dT*eTeA*eA*eA*e[5mC]) [compound 1693056] | 105 | 118 | 
1693058: 5-10-5 MOE gapmer TTGGTGAATCTTTATTAAAC, linkages sssoszzzssssszsosss (antisense eT*eT*eG*eGeT*dG[ms]dA[ms]dA[ms]dT*d[5mC]*dT*dT*dT*dA[ms]dT*eTeA*eA*eA*e[5mC]) [compound 1693058] | 113 | 80 | 
1693100: 6-10-4 MOE gapmer CTTGGTGAATCTTTATTAAA, linkages sssssszzzssssszsoss (e[5mC]*eT*eT*eG*eG*eT*dG[ms]dA[ms]dA[ms]dT*d[5mC]*dT*dT*dT*dA[ms]dT*eTeA*eA*eA) [compound 1693100] | 87 | 51 | 
1693138: 6-10-4 MOE gapmer CTTGGTGAATCTTTATTAAA, linkages sssssozzzsssszzsoss (e[5mC]*eT*eT*eG*eG*eTdG[ms]dA[ms]dA[ms]dT*d[5mC]*dT*dT*dT[ms]dA[ms]dT*eTeA*eA*eA) [compound 1693138] | 90 | 85 | 
1693081: 6-10-4 MOE gapmer TTGGTGAATCTTTATTAAAC, linkages sssssozzszssszssoss (eT*eT*eG*eG*eT*eGdA[ms]dA[ms]dT*d[5mC][ms]dT*dT*dT*dA[ms]dT*dT*eAeA*eA*e[5mC]) [compound 1693081] | 91 | 100 | 
1693059: 5-10-5 MOE gapmer TTGGTGAATCTTTATTAAAC, linkages ssssszzzssssszsssss (antisense eT*eT*eG*eG*eT*dG[ms]dA[ms]dA[ms]dT*d[5mC]*dT*dT*dT*dA[ms]dT*eT*eA*eA*eA*e[5mC]) [compound 1693059] | 89 | 98 | 
1693104: 6-10-4 MOE gapmer CTTGGTGAATCTTTATTAAA, linkages ssossszzzssssszssss (e[5mC]*eT*eTeG*eG*eT*dG[ms]dA[ms]dA[ms]dT*d[5mC]*dT*dT*dT*dA[ms]dT*eT*eA*eA*eA) [compound 1693104] | 129 | 52 | 
1693063: 5-10-5 MOE gapmer TTGGTGAATCTTTATTAAAC, linkages ssssszzzsssszzsssss (antisense eT*eT*eG*eG*eT*dG[ms]dA[ms]dA[ms]dT*d[5mC]*dT*dT*dT[ms]dA[ms]dT*eT*eA*eA*eA*e[5mC]) [compound 1693063] | 97 | 87 | 
1693069: 5-10-5 MOE gapmer ACTTGGTGAATCTTTATTAA, linkages ssssosszzzszsssssss (antisense eA*e[5mC]*eT*eT*eGdG*dT*dG[ms]dA[ms]dA[ms]dT*d[5mC][ms]dT*dT*dT*eA*eT*eT*eA*eA) [compound 1693069] | 78 | 66 | 
1736519: 6-10-4 MOE gapmer CTTGGTGAATCTTTATTAAA, linkages sososszzzssssssssss (e[5mC]*eTeT*eGeG*eT*dG[ms]dA[ms]dA[ms]dT*d[5mC]*dT*dT*dT*dA*dT*eT*eA*eA*eA) [compound 1736519] |  |  | IC50 (human APOE RNA [2]): 340 nM; APOE RNA (% UTC) (human APOE RNA [2]; 5 nM): 107 % UTC; APOE RNA (% UTC) (human APOE RNA [2]; 13 nM): 104 % UTC; APOE RNA (% UTC) (human APOE RNA [2]; 33 nM): 91 % UTC; APOE RNA (% UTC) (human APOE RNA [2]; 82 nM): 75 % UTC; APOE RNA (% UTC) (human APOE RNA [2]; 205 nM): 53 % UTC; APOE RNA (% UTC) (human APOE RNA [2]; 512 nM): 42 % UTC; APOE RNA (% UTC) (human APOE RNA [2]; 1,280 nM): 25 % UTC; APOE RNA (% UTC) (human APOE RNA [2]; 3,200 nM): 15 % UTC; APOE RNA (% UTC) (human APOE RNA [2]; 8,000 nM): 16 % UTC; APOE RNA (% UTC) (human APOE RNA [2]; 20,000 nM): 5 % UTC
1693077: 6-10-4 MOE gapmer TTGGTGAATCTTTATTAAAC, linkages sosssszzszssszssoss (eT*eTeG*eG*eT*eG*dA[ms]dA[ms]dT*d[5mC][ms]dT*dT*dT*dA[ms]dT*dT*eAeA*eA*e[5mC]) [compound 1693077] | 98 | 76 | 
1693140: 6-10-4 MOE gapmer ACTTGGTGAATCTTTATTAA, linkages sssssoszzzssssszoss (eA*e[5mC]*eT*eT*eG*eGdT*dG[ms]dA[ms]dA[ms]dT*d[5mC]*dT*dT*dT*dA[ms]eTeT*eA*eA) [compound 1693140] | 109 | 68 | 
1693065: 5-10-5 MOE gapmer ACTTGGTGAATCTTTATTAA, linkages soossssszzsssssssss (antisense eA*e[5mC]eTeT*eG*dG*dT*dG*dA[ms]dA[ms]dT*d[5mC]*dT*dT*dT*eA*eT*eT*eA*eA) [compound 1693065] | 82 | 46 | 
1736518: 6-10-4 MOE gapmer CTTGGTGAATCTTTATTAAA, linkages soossszzzssssssssss (e[5mC]*eTeTeG*eG*eT*dG[ms]dA[ms]dA[ms]dT*d[5mC]*dT*dT*dT*dA*dT*eT*eA*eA*eA) [compound 1736518] |  |  | IC50 (human APOE RNA [2]): 720 nM; APOE RNA (% UTC) (human APOE RNA [2]; 5 nM): 93 % UTC; APOE RNA (% UTC) (human APOE RNA [2]; 13 nM): 97 % UTC; APOE RNA (% UTC) (human APOE RNA [2]; 33 nM): 99 % UTC; APOE RNA (% UTC) (human APOE RNA [2]; 82 nM): 83 % UTC; APOE RNA (% UTC) (human APOE RNA [2]; 205 nM): 64 % UTC; APOE RNA (% UTC) (human APOE RNA [2]; 512 nM): 44 % UTC; APOE RNA (% UTC) (human APOE RNA [2]; 1,280 nM): 37 % UTC; APOE RNA (% UTC) (human APOE RNA [2]; 3,200 nM): 31 % UTC; APOE RNA (% UTC) (human APOE RNA [2]; 8,000 nM): 30 % UTC; APOE RNA (% UTC) (human APOE RNA [2]; 20,000 nM): 13 % UTC

— patent US20250353873A1, “COMPOUNDS AND METHODS FOR MODULATING APOE EXPRESSION” (Ionis Pharmaceuticals, Inc., priority 2024, published 2025)
